# From patent US20180282279A1, “Pantothenamide Analogues” (Radboud Universitair Medisch Centrum, priority 2014, published 2018)
# pIC50: −log10 of the molar value.
# Experiments:
# [1] = system: P. falciparum gametocytes; test: Gametocyte female gametogenesis capacity assay (Pfs25 AlphaLISA); type: cell-based; details: Plasmodium falciparum, 72 hours incubation
# Description: To monitor compound effects on the ability of a gametocyte to form a female gamete, day 11 (stage IV) gametocytes were seeded at a density of 4×10^5 gametocytes per well in a V-bottom plate in 50 μl culture medium. 50 μl of diluted compound was added to the gametocytes (0.1% DMSO final concentration) and plates were incubated for 72 hours at 37° C., 98% humidity, 93% N2, 4% CO2 and 3% O2. Subsequently, gametogenesis was induced by adding xanthurenic acid to a final concentration of 40 μM and plates were incubated for 16 hours at 20° C. Gametes were detected in a homogeneous proximity immunoassay on basis of Pfs25 expression by use of AlphaLISA technology (Perkin Elmer). All steps were performed at 20° C. Gametes were washed twice with PBS, lysed for 15 min in 10 μl 10 mM Tris pH 8.0/1% laurylsarcosyl/1 mM phenylmethanesulfonyl fluoride and combined with 10 μl 5 nM biotinylated mouse anti-Pfs25 monoclonal antibody 32F6244 in a white 384 well optiplate (Perkin Elmer). After 1 hour incubation 15 μl of 33 μg/ml acceptorbeads coated with mouse anti-Pfs25 monoclonal antibody 32F81 were added. After 1 hour incubation, 15 μl 33 μg/ml Streptavidin-conjugated donorbeads were added. Finally, after 1 hour incubation luminescence signals were monitored at the 615 nm emission wavelength following excitation at 680 nm using a fluorometer (Biotek Synergy 2). All compounds were tested in duplicate (24 hr) or triplicate (1 and 72 hr). Controls included MIN (0.1 μM epoxomicin) and MAX (0.1% DMSO). Data were analyzed by logistic regression using the formula: Y=Bottom+(Top−Bottom)/(1+10̂((Log IC50−X)*HillSlope)) and a least squares method to find the best fit.
# [2] = system: Plasmodium falciparum NF54 parasites; test: P. falciparum asexual blood stage replication assay (SYBR Green); type: cell-based; details: NF54, 10% human serum, 72 incubation
# Description: Compounds were tested on their ability to inhibit replication of the human malaria parasite Plasmodium falciparum. To this end, Plasmodium falciparum NF54 parasites were cultured in RPMI1640 medium supplemented with 367 μM hypoxanthine, 25 mM HEPES, 25 mM sodiumbicarbonate and 10% human type A serum in an automated large-scale culture system as described before (Transactions of the Royal Society of Tropical Medicine and Hygiene, 1982. 76: p. 812-818). Compounds were diluted in DMSO and subsequently in culture medium to reach a DMSO concentration of 0.2%. 50 μl of diluted compound was transferred to a black 96 well plate. A culture of P. falciparum strain NF54 malaria parasites was diluted to a parasitaemia of 0.5% and a hematocrit of 3%. 50 μl of this diluted culture was added to each well in the 96 well plate._The outermost wells of the plate were filled with sterile water to prevent evaporation. The established antimalarial dihydroartemisinin (DHA) in DMSO acted as a positive control (MIN signal), and 0.1% DMSO acted as a negative control (MAX signal). The plates were incubated for 72 at 37° C., 3% 02, 5% CO2, 93% N2. Changes in parasite replication relative to the controls were monitored using the DNA-marker SYBR Green as described previously (Antimicrob Agents Chemother 48:1803-6). Data were analyzed by logistic regression using the formula: Y=Bottom+(Top-Bottom)/(1+10̂((Log IC50−X)*HillSlope)) and a least squares method to find the best fit.
# Using similar methods, IC50 values were determined for a variety of inverted pantothenamides, as listed in table 1 (see section: ‘Detailed description of the invention’)
# [3] = system: P. falciparum gametocytes; test: microbe, parasite or virus in culture; type: cell-based, Plasmodium falciparum; details: for pIC50: 72 hour incubation, read-out: Gametocyte viability (pLDH) IC50; for effect on gametocyte viability (pLDH activity): FIG. 4A; for extent of inhibition of gametocyte viability: compared with reference compound DHA
# Description: Compounds were tested for their ability to affect the viability of gametocytes, the sexually committed blood stages of P. falciparum that underlie transmission to the mosquito vector. To this end, two different assays were performed. The first assay monitored pLDH activity as a measure of viability of gametocytes (J Antimicrob Chemother. 2013 September; 68(9):2048-58). The second assay monitored the ability of gametocytes to form a female gamete by detection of the gamete-specific marker Pfs25. Plasmodium falciparum NF54 parasites were cultured in RPMI1640 medium supplemented with 367 μM hypoxanthine, 25 mM HEPES, 25 mM sodiumbicarbonate and 10% human type A serum in an automated large-scale culture system as described before (Transactions of the Royal Society of Tropical Medicine and Hygiene, 1982. 76: p. 812-818). Cultures were treated with 50 mM N-acetyl-D-glucosamine from day 4 till day 9 to kill asexual parasites. On day 11 gametocytes were isolated by discontinuous 63% Percoll gradient centrifugation. Compounds were diluted in DMSO and subsequently in culture medium to reach a DMSO concentration of 0.2%. To measure the effect of compounds of pLDH activity, gametocytes were seeded at a density of 3.5×10^4 gametocytes per well in a black 384 well plate in 30 μl of culture medium, and 30 μl of diluted compound was added. Following a 72 hour incubation at 37° C., 98% humidity, 93% N2, 4% CO2 and 3% O2, gametocyte viability was measured by a modified plasmodium lactate dehydrogenase assay by using resazurin as a substrate as previously described (Nature, 2013. 504(7479): p. 248-53). Assays were performed in quadruplicate (two different plates with two different gametocyte batches) and all plates included controls MIN (1 μM DHA), MAX (0.1% DMSO) and a serial dilution of reference compound dihydroartemisinin (DHA).
# [4] = system: P. falciparum asexual blood stage parasites; test: Asexual replication assay in competition with pantothenate; type: cell-based, Plasmodium falciparum; details: log dose ratio −1 vs log pantothenate concentration
# Description: FIG. 3: Competition between pantothenic acid and inverted-amide pantothenamide. Asexual replication assays were performed in combinations of pantothenic acid (PA) and CXP18.6-017 (A), CXP18.6-026 (B) and CXP18.6-052 (C). The relative number of parasites was determined by a Sybrgreen DNA detection method. Data are expressed relative to the MAX (0.1% DMSO) and MIN (10 μM DHA) controls. Error bars indicate standard deviations from two independent observations. D) S child regression analysis of combinations of CXP18.6-052 and pantothenic acid.
# To study their interaction with pantothenate-dependent pathways, asexual replication assays were performed with CXP18.6-017, CXP18.6-026 and CXP18.6-052 in the presence of increasing amounts pantothenate. When combining a pantothenamide analogue and pantothenate in the same well the conditions were otherwise similar to the single compound assays described above, however the final DMSO concentration was 0.2%, which was also adjusted for the positive and negative controls.
# [5] = Table 3, read-out: Gametocyte gametogenesis capacity (Pfs25) IC50
# [6] = FIG. 4B, read-out: female gametogenesis capacity of gametocytes IC50
Structure (SMILES),"pIC50 [1, 5]",IC50 [2] [µM],pIC50 ([3]; Plasmodium falciparum),"pIC50 [1, 6]",Schild regression analysis with pantothenate [4],effect on gametocyte viability (pLDH activity) [3],extent of inhibition of gametocyte viability [3],"maximum inhibition of gametocyte viability ([3]; Plasmodium falciparum, 72 h) [%]"
CC(C)(CO)[C@@H](O)C(=O)NCCNC(=O)CCc1ccccc1 [CXP18.6-006],6.32,0.12,< 5.00,,,,,
CC(C)(CO)[C@@H](O)C(=O)NCCNC(=O)CCc1ccccc1F [CXP18.6-017],7.44,0.022,7.00,7.43,did not reveal a linear correlation,dose dependently reduced gametocyte viability,to the same extent as the reference compound DHA,
Cc1ccc(CCC(=O)NCCNC(=O)[C@H](O)C(C)(C)CO)cc1 [CXP18.6-026],7.89,0.16,6.77,7.89,did not reveal a linear correlation,dose dependently reduced gametocyte viability,to the same extent as the reference compound DHA,
CC(C)(CO)[C@@H](O)C(=O)NCCNC(=O)CCc1cccnc1 [CXP18.6-052],,0.008,,5.70,competitive antagonism,dose dependently reduced gametocyte viability,,~50
